pEC50: −log10 of the molar value. Where “and” joins values, the source holds several entries; their conditions need not be identical. Equal entries are not always repeated.

Data set [1] relates to albino New Zealand strain rabbits. The data set can be described thus: Capsaicin-induced ocular pain, palpebral opening. It counts as in vivo, rabbit. The following applies: Table VI, 10 mg/ml instilled, 10-30 min. post capsaicin, five animals.
Data set [2] has as its target T1, human kappa opioid receptor (hKOR) (Homo sapiens, UniProt P41145).
T1 construct: expressed in transfected cells; host or cells: HEK-293 cells, transient transfection with Fugene6
The data set can be described thus: cell-based. The following applies: for Emax: HEK293, read-out: hKOR Efficacy(%).

Data set [3] has as its target T2, mouse kappa opioid receptor (mKOR) (Mus musculus, UniProt P33534).
T2 construct: Stimulation of Endogenous Mouse Kappa-Opioid Receptor in R1.G1 Cells; host or cells: R1.G1 mouse thymoma cells
The data set can be described thus: cell-based. The following applies: for Emax: read-out: mKOR Efficacy(%).

The nature of data set [4]: Pharmacokinetics in cynomolgus monkeys, plasma half life. The following applies: male, cynomolgus monkey, iv.
In another data set the target is CYP2D6 (Homo sapiens, UniProt P10635). The data set can be described thus: Cytochrome P450 CYP2D6 inhibition in human liver microsomes. The following applies: percent remaining CYP activity, 10 μM test compound, (54) in Expt 1 and Expt 2.
The target in a further data set is CYP2C19 (Homo sapiens, UniProt P33261). The data set can be described thus: Cytochrome P450 CYP2C19 inhibition in human liver microsomes. The following applies: percent remaining CYP activity, 10 μM test compound, (54) in Expt 1 and Expt 2.
Data set [5] can be described thus: Inhibition of locomotion in mice (locomotion reduction assay, sedation). The following applies: mouse, in vivo, sc, subcutaneous, sedative effect. As to the method: To determine the potential sedative effect of test compounds, the extent of locomotion after the administration of the test compound or vehicle control can be determined and compared with a specialized apparatus designed for this purpose (Opto-Varimex Activity Meter). At the start of each experiment, each mouse was weighed and examined to determine good health. […] The subcutaneous injection was performed in the back of the neck of the mouse, pinched in a “tent” to allow proper access for the syringe needle. After injection, each animal was placed individually in Plexiglas boxes (43 cm×43 cm) inside the Opto-Varimex Activity Meter apparatus. Before the animal was placed in the apparatus, a thin layer of SANI-CHIPS rodent bedding was placed on the bottom of the Plexiglas box to provide a comfortable environment. Each Opto-Varimex Activity Meter apparatus was then turned on and data acquisition begun by the ATM3 Auto-Track System. The data were processed and results expressed in the same way as described for the writhing assay data above.

For another data set, the system named is ICR mice. The data set can be described thus: Acetic acid-induced writhing assay in mice. It counts as in vivo, mouse. The following applies: subcutaneous, ICR mice.
The next data set has as its target CYP2C9 (Homo sapiens, UniProt P11712). The data set can be described thus: Cytochrome P450 CYP2C9 inhibition in human liver microsomes. The following applies: percent remaining CYP activity, 10 μM test compound, (54) in Expt 1 and Expt 2.
The test system of a further data set is CYP1A. The data set can be described thus: Cytochrome P450 CYP1A inhibition in human liver microsomes. The following applies: percent remaining CYP activity, 10 μM test compound, (54) in Expt 1 and Expt 2. The data set is classed as in vitro ADME. As to the method:
Inhibition of cytochrome P450 oxidase isozymes CYP1A, CYP2C9, CYP2C19, CYP2D6 and CYP3A4 by synthetic peptide amide compounds of the invention was determined according to the following methods performed by Cerep (Seattle, Wash.):
In the cytochrome P450 CYP1A assay, human liver microsomes (0.2 mg/ml protein) were incubated for 15 minutes at 37° C. with 10 μM test compound, 1 μM ethoxyresorufin, 1.3 mM NADP, 3.3 mM glucose-6-phosphate and 0.4 U/ml glucose-6-phosphate dehydrogenase. In the absence of test compound, the ethoxyresorufin added as substrate is oxidized to resorufin, and in the presence of an inhibitor of the CYP isozyme, the amount of resorufin produced is reduced. Furafylline was used as a reference inhibitor.
In each assay, the percent inhibition of the cytochrome P450 CYP P450 isozyme was determined as one hundred times the ratio of (1-minus the amount of product in the sample in the presence of the test compound) divided by the amount of product in the sample containing untreated isozyme.

The target of another data set is CYP3A4 (Homo sapiens, UniProt P08684). The data set can be described thus: Cytochrome P450 CYP3A4 inhibition in human liver microsomes (midazolam). The following applies: percent remaining CYP activity, 10 μM test compound, (54) in Expt 1 and Expt 2.
Sequence of CYP3A4 (P08684 whole entry): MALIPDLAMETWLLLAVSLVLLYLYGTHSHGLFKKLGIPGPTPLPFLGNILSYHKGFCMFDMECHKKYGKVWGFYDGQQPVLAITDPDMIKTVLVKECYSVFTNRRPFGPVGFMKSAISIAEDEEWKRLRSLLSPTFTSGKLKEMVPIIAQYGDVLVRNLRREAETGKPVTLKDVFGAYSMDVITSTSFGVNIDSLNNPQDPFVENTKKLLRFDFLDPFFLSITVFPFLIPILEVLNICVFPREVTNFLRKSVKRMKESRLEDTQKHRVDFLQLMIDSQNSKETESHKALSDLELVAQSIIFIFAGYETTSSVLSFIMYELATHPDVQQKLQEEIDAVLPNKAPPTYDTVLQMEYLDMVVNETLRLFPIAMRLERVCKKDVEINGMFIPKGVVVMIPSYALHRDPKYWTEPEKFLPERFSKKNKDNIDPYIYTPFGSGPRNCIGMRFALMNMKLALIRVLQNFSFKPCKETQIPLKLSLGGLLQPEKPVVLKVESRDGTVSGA

T2 sequence (P33534 whole entry): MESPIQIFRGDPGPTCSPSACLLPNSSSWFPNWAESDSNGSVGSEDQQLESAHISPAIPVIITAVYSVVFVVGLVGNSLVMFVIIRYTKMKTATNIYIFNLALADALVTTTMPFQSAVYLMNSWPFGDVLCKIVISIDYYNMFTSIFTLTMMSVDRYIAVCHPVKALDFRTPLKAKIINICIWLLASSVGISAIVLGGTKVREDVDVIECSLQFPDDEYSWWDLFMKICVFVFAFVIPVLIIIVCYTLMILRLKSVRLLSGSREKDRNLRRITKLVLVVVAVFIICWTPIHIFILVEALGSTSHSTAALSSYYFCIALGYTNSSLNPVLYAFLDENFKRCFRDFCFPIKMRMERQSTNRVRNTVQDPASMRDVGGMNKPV
T1 sequence (P41145 whole entry): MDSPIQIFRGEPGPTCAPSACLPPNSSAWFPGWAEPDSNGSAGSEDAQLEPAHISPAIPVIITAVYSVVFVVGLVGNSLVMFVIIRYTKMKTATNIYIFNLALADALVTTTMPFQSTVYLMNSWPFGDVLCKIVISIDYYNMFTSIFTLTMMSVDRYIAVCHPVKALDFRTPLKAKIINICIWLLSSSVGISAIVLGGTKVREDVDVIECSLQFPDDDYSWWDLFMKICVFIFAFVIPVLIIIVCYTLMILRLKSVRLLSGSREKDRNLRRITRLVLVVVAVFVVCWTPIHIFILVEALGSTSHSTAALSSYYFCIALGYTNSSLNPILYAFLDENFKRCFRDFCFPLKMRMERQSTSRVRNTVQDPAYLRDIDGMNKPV
Sequence of CYP2D6 (P10635 whole entry): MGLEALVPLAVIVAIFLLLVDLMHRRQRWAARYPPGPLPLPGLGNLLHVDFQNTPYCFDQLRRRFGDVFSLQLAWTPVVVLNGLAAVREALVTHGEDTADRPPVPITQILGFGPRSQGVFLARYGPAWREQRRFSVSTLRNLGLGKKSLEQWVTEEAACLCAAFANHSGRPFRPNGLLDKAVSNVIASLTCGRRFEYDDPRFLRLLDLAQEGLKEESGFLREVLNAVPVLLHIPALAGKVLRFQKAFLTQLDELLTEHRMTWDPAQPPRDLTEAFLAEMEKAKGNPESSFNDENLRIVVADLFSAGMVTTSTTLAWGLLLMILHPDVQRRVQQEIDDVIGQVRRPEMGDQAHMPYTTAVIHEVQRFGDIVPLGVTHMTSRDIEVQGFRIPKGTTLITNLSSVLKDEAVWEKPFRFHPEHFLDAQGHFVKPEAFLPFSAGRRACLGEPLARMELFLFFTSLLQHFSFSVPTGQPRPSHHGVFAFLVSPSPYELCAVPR
Sequence of CYP2C19 (P33261 whole entry): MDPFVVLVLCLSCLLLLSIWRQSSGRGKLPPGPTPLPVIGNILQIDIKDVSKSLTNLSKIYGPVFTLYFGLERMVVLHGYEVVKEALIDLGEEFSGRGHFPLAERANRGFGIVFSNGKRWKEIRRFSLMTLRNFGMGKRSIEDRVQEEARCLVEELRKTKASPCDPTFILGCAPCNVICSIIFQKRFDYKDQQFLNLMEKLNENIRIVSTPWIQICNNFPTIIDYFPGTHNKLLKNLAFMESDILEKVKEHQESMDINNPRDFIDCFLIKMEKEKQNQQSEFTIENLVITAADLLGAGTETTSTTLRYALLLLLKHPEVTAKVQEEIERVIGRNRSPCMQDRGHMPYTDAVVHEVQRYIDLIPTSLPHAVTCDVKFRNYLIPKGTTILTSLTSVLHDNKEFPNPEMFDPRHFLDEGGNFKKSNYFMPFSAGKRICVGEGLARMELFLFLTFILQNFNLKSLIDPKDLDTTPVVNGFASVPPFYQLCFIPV
Sequence of CYP2C9 (P11712 whole entry): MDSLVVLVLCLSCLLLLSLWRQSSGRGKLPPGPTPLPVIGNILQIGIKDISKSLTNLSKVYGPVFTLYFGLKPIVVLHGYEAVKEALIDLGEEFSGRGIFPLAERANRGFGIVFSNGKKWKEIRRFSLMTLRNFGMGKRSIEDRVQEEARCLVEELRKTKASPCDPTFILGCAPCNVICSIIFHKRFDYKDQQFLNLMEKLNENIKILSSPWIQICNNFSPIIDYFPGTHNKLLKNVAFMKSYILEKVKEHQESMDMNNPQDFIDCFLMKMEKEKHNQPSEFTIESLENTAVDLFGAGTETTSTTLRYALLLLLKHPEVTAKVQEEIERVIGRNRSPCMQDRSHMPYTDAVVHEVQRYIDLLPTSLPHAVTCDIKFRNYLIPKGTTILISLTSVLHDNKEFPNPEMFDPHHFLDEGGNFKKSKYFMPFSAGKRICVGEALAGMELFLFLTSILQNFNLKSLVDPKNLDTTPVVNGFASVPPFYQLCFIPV

`CC(C)C[C@@H](NC(=O)[C@@H](Cc1ccccc1)NC(=O)[C@H](N)Cc1ccccc1)C(=O)N[C@H](CCCCN)C(=O)N1CCC(N2CCC[C@H]2C(=O)O)CC1` [Compound (4), D-Phe-D-Phe-D-Leu-D-Lys-[N-(4-piperidinyl)-L-proline]-OH]: the “Mean (% Control) palpebral opening” value in data set [1] is reported as 56.7 % Control. In addition, the pEC50 is 9.82 in [2] and 10.12 in data set [3]. In addition, the Emax in data set [2] is 92%; in [3], 94%.

For `C/N=C(/N)N1CCCN(C(=O)[C@@H](CCCN)NC(=O)[C@@H](CC(C)C)NC(=O)[C@@H](Cc2ccccc2)NC(=O)[C@H](N)Cc2ccccc2)CC1` [Compound (52), D-Phe-D-Phe-D-Leu-D-Orn-[4-(N-methyl)amidino-homopiperazine amide]], the pEC50 in [2] was 9.74; in data set [3], 10.46. Besides, the Emax was 96% in data set [2] and 101% in data set [3]. The compound also displayed a half-life in data set [4] of 1.15 h.

Consider `CC(C)C[C@@H](NC(=O)[C@@H](Cc1ccccc1)NC(=O)[C@H](N)Cc1ccccc1)C(=O)N[C@H](CCCN)C(=O)N1CCCN(C2=NCCN2)CC1` [Compound (54), D-Phe-D-Phe-D-Leu-D-Orn-[4-(4,5-dihydro-1H-imidazol-2-yl)homopiperazine amide]], for which, in [2], the pEC50 is 9.89 and the Emax amounted to 90%. Further, on CYP2D6, the “Percent Activity of Cytochrome P450 CYP2D6” value was 98.4% and 98.2%. Further, the “Percent Activity of Cytochrome P450 CYP2C19” value on CYP2C19 was 94.1% and 97.8%. The ED50 in data set [5] is 3.17 mg/kg. In addition, the “ED50 in the acetic acid-induced writhing assay” value in the data set on ICR mice was determined as 0.074 mg/kg. Moreover, in [3], the pEC50 was 10.25 and the Emax was 99%. Further, the “Percent Activity of Cytochrome P450 CYP2C9” value on CYP2C9 is 99.2% and 98.2%. Also, the “Percent Activity of Cytochrome P450 CYP1A” value in the data set with CYP1A is 97.1% and 95.8%. For the same compound, the “Percent Activity of Cytochrome P450 CYP3A4” value on CYP3A4 was 94.7% and 95.9%.

(Values after patent publication US7713937B2, “Synthetic peptide amides and dimeric forms thereof” (Cara Therapeutics, Inc., priority 2006, dated 2010).)
